Assays:
Male Sprague-Dawley rats [1] = assay: Situational anxiety behavioral model in rats (latency to exit dark cylinder into open field); format: in vivo, rat; settings: for lowest effective dose (decrease of exit latency): PO, 60 minutes before testing
From the text: Situational Anxiety Behavioral Studies in Rats. (S)-4-(1-Cyclopropyl-2-methoxyethyl)-6-(6-(difluoromethoxy)-2,5-dimethylpyridin-3-ylamino)-5-oxo-4,5-dihydropyrazine-2-carbonitrile has been evaluated in a situational anxiety model to evaluate its anxiolytic potential. In this model, rats are placed in a small, darkened chamber located in an unfamiliar open field. Vehicle-treated rats spend most of the time within the chamber, consistent with a heightened state of anxiety [Takahashi L. K. et al, Behav. Neurosci. 103: 648-654, (1989)]. This model is sensitive to anxiolytics, including benzodiazepines such as chlordiazepoxide [Yang X-M. et al, J. Pharmacol. Exp. Ther. 255: 1064-1070, (1990)]. In addition, previous CRF1 antagonists, such as DMP696 and DMP904 [McElroy J. F. et al., Psychopharmacology 165: 86-92, (2002); Lelas S. et al., J. Pharmacol. Exp. Ther. 309: 293-302, (2004)] were effective this model. The effects of (S)-4-(1-cyclopropyl-2-methoxyethyl)-6-(6-(difluoromethoxy)-2,5-dimethylpyridin-3-ylamino)-5-oxo-4,5-dihydropyrazine-2-carbonitrile were compared with those of anxiolytic standards chlordiazepoxide (Librium®) and diazepam (Valium®) in this model. Male Sprague-Dawley rats weighing 180-300 g were purchased from Charles River Laboratories (Wilmington, Mass.). The rats were housed individually in suspended wire cages in colony rooms maintained at a constant temperature (21±2° C.) and humidity (50±10%). The rooms were illuminated 12 hours per day. The rats had ad libitum access to food and water throughout the studies. Behavioral studies were conducted between 0600 and 1300 h. Animals were maintained in accordance with the guidelines of the Animal Care and Use Committee of the Bristol-Myers Squibb Company, the “Guide for Care and Use of Laboratory Animals” (Institute of Animal Laboratory Resources, 1996), and the guidelines published in the National Institutes of Health Guide for the Care and Use of Laboratory Animals. Research protocols were approved by the Bristol-Myers Squibb Company Animal Care and Use Committee. All compounds were prepared in 0.25% methylcellulose and administered PO. Chlordiazepoxide, diazepam, and desipramine were purchased from Sigma Chemical Company. (S)-4-(1-Cyclopropyl-2-methoxyethyl)-6-(6-(difluoromethoxy)-2,5-dimethylpyridin-3-ylamino)-5-oxo-4,5-dihydropyrazine-2-carbonitrile was dosed in the volume of 2 ml/kg. All standards were dosed in the volume of 2 ml/kg. For all tests, data were analyzed by analysis of variance, followed by Dunnett's t-tests for individual comparisons. The significance value was set at 0.05. The data are presented in the text and figures as mean±standard error of the mean (SEM). Male Sprague-Dawley rats were habituated to handling and dosing the day before testing. On the day of testing, all compounds were administered PO by gavage 60 minutes before behavioral testing. To initiate testing, each animal was placed in a small galvanized steel cylinder (14 cm length, 10 cm diameter), which was placed lengthwise against one wall of an illuminated open field (106 cm length×92 cm width×50 cm height). The open field was illuminated by a 60-W incandescent bulb and illumination was titrated by a powerstat transformer to a 30-lux reading at the entrance to the cylinder. Behavior was assessed for 15 minutes by a trained observer unaware of treatment assignment. The latency of the animal to exit the cylinder, defined by the placement of all four paws into the open field, and explore the open field was recorded (in seconds). […] The Plexiglas chamber and the cylinder were cleaned with 1.0% glacial acetic acid between animals to prevent olfactory cues from influencing the behavior of subsequently tested animals. Following behavioral testing, animals were sacrificed and plasma samples and brains were taken for analysis of plasma exposure and central receptor occupancy.

Male Sprague-Dawley rats [2] = settings: previous CRF1 antagonists, literature (McElroy 2002; Lelas 2004); cited from earlier work
[3] = 3.0 mg/kg PO, benzodiazepine standard studies
[4] = 10 mg/kg PO, benzodiazepine standard studies

SMILES | decrease in exit latency relative to vehicle-treated controls (Male Sprague-Dawley rats [1]; 1.0 mg/kg PO, benzodiazepine standard study) | decrease in exit latency relative to vehicle-treated controls (Male Sprague-Dawley rats [1]; [3]) | decrease in exit latency relative to vehicle-treated controls (Male Sprague-Dawley rats [1]; [4]) | lowest effective dose (decrease of exit latency) (Male Sprague-Dawley rats [1]) | decrease in exit latency relative to vehicle-treated controls (Male Sprague-Dawley rats [1]; 30 mg/kg PO, benzodiazepine standard study) | decrease in exit latency relative to vehicle-treated controls (Male Sprague-Dawley rats [1]; 100 mg/kg PO, benzodiazepine standard study) | effectiveness in the situational anxiety model (Male Sprague-Dawley rats [2])
CN1C(=O)CN=C(c2ccccc2)c2cc(Cl)ccc21 [diazepam] | 62% | 69% | 91% | 1.0 mg/kg |  |  | 
CNC1=Nc2ccc(Cl)cc2C(c2ccccc2)=[N+]([O-])C1 [chlordiazepoxide] |  | 58% | 97% | 3.0 mg/kg | 72% | 54% | 
CCC(CC)Nc1cc(C)nc2c(-c3ccc(OC)cc3C)c(C)nn12 [DMP904] |  |  |  |  |  |  | effective
